According to PMC9266561, “1,3-Benzodioxole Derivatives Improve the Anti-Tumor Efficiency of Arsenicals” (International Journal of Molecular Sciences, 2022):
Where two headings read alike, the source gives them in different places.

Experiments:
GSH = GSH content; assay type: cell-based
[1] = rat, in vivo
4T1 cells = assay: ROS level by DCFH-DA in 4T1 cells; assay type: cell-based
Method: The 4T1 cells treated with the MAZ2 of 0.8 and 1.6 µM were seeded in 6-well plates for 3, 6, 9, 12, and 24 h. Then, the medium was removed and fresh medium with DCFH-DA (0.2 µM) was added, followed by 30 min of incubation. Next, cells were collected and washed twice with PBS. Data were collected by a C6 flow cytometer (BD Biosciences, Franklin Lakes, New Jersey, USA).
The 4T1 cells treated with the MAZ2 of 0.8 and 1.6 µM were cultured in 1 cm dishes specially designed for confocal tests. Nine hours later, DCFH-DA was added for confocal tests.

cancer cells = assay: MTT assay, cancer cell lines taken together; assay type: cell-based; settings: all cancer cell lines
Method: The bioactivity of all the synthetic compounds was evaluated by a MTT assay (Table 1, Tables S1 and S2) against two leukemia cell lines, Molm-13 and NB4; two solid tumor cell lines, HeLa (human cervix cell line) and 4T1 (breast cancer cell line); and two normal cell lines, COS-7 (African green monkey kidney cell line) and rat PBMC (peripheral blood mononuclear cell line).
Cells were cultured in 96-well plates overnight, followed by adding 80 μL of a related medium containing compounds of different concentrations and dissolved in DMSO for 24 h or 48 h. Then, 40 μL of MTT (2.5 mg/mL) was added and the cells were incubated for another 4 h. The cells were then dissolved in 100 μL of 10% SDS solution or DMSO to release and dissolve the purple MTT products, followed by absorbance detection (BioTek, Winooski, VT, USA).

PBMC = assay: cells; assay type: cell-based, rat
COS-7 = assay: cells; assay type: cell-based, African green monkey
4T1 tumors = assay: 4T1 tumor syngeneic model in Balb/C mice; assay type: in vivo; settings: for average tumor weight reduced by: two administrations, day 26
Method: To confirm the bioactivity of MAZ2 in vivo, the tumor growth inhibition in 4T1 tumor syngeneic models in Balb/C mice was investigated (Figure 4A). When tumors grew to about 100 mm^3, the mice were divided into three groups; namely, the control, 1 mg/kg of MAZ2, and 1.5 mg/kg of MAZ2. Either a vehicle or the MAZ2 was injected intraperitoneally once a week. […] Therefore, the experiments were terminated at day 26 after two administrations.
(§1) The mice (BALB/c, female, 5 weeks), purchased from Hubei Provincial Laboratory Animal Public Service Center, were injected with 0.1 mL of 4T1 cells (1 × 10^6/mL) in the right haunch. After the tumor grew to approximately 100 mm^3, the mice were randomly divided into three groups: control (PBS:DMSO = 8:2), 1 mg/kg, and 1.5 mg/kg. The MAZ2 was administrated once a week (i.p.) for two doses. The 1.5 mg/kg group had six mice, and the tumors of two mice disappeared after 8 days; that is, after one administration, the two tumors were almost eliminated. The body weight and tumor volume were measured every two days.
(§2) Fresh tumors and organs were minced quickly in an ice bath and homogenized in a pre-cooled Dounce Tissue Grinder (WHEATON). The homogenate was dissolved by RIPA with 0.1% PMSF. The protein concentration was determined by a BCA Protein Assay Kit (Beyotime, Shanghai, China). A total of 20–40 μg of proteins were separated by 8–12% SDS-PAGE according to the molecular weight of certain proteins, followed by being transferred onto the polyvinylidene difluoride membrane. Then, the membrane was blocked with 5% fat-free milk for 2 h, followed by incubation with primary antibodies and HRP-conjugated secondary antibodies. Then, the images were snapped by QuickChemi5100.

Molm-13 and 4T1 cells = assay: MDA content (lipid peroxidation); assay type: cell-based; settings: 6 and 12 h
Method: The Molm-13 and 4T1 cells were cultured in 6-well plates for 6 and 12 h, followed by an MDA test according to the manufacturer’s instructions.

[2] = tested on: Trx system (TrxR1, Trx1, TrxR2, Trx2); assay: Transcription of Trx system genes in 4T1 cells; assay type: cell-based; settings: 24 h, 1IC50 and 1.5IC50
Source text: See the methods in previous work.

4T1 = assay: cells; assay type: cell-based
Molm-13 = assay: cells; assay type: cell-based
HeLa = assay: cells; assay type: cell-based, human
Molm-13 cells = assay: Apoptosis assay by flow cytometry; assay type: cell-based; settings: 0.2, 0.3 and 0.4 µM, 24 h
Method: The Molm-13 cells were cultured with 0.2, 0.3, and 0.4 µM MAZ2 for 24 h; then, the cells were collected and stained using annixin V-FITC and PE for 30 min. The separation lines were determined by single staining.

[3] = Side effects in 4T1 tumor-bearing mice; assay type: in vivo
Method: as §1
Blood samples for the blood cell content tests were collected from the eye socket veins of the mice.
as §2
The 5 organs were formalin-fixed for 24 h immediately after the mice were sacrificed, and decalcified for 3.5 h, paraffin-embedded, cut, dewaxed, and hydrated. Some samples were stained with H&E. The pictures in the results were magnified by 400× and the scale bar was 50 µm.

TrxR = assay: Cellular TrxR activity of 4T1 cells; assay type: cell-based; settings: 12 h incubation
[4] = Arsenic content of viscera and tumor by ICP-MS; settings: mouse, in vivo
[5] = tested on: 4T1 cells with TrxR knocked down; assay: MTT assay of 4T1 cells with TrxR siRNA knock-down; assay type: cell-based
NB4 = assay: cells; assay type: cell-based

COc1ccc(C(=O)Nc2ccc([As]3SCCCS3)cc2)cc1 [MAZ2]
influence on the GSH content (GSH): very little influence | blood arsenic content over time [1]: decreased slowly and remained at high levels even after 2 days | incubation time at which the ROS peak was reached (4T1 cells): 9 h | ROS level (4T1 cells; 0.8 and 1.6 µM): rose sharply in a dosage-dependent manner | IC50 (cancer cells): < 1000 nM | IC50 (PBMC; read-out: IC50 PBMC 24 h): 7600 nM | IC50 (PBMC; read-out: IC50 PBMC 48 h): 6900 nM | IC50 (COS-7; read-out: IC50 COS-7 24 h): 5200 nM | IC50 (COS-7; read-out: IC50 COS-7 48 h): 3300 nM | average tumor weight reduced by (4T1 tumors; 1 mg/kg i.p. once a week): 30% | tumor growth (tumor volume) (4T1 tumors; 1 mg/kg or 1.5 mg/kg i.p. once a week): completely reverse the growth of tumors and gradually eliminate tumors | tumors eliminated (4T1 tumors; 1.5 mg/kg i.p. once a week, after two weeks): two tumors in the mice belonging to the 1.5 mg/kg MAZ2 group were eliminated | average tumor weight reduced by (4T1 tumors; 1.5 mg/kg i.p. once a week): 15% | TrxR and Trx content of tumors by western blot (4T1 tumors; tumors of treated mice): reduced the TrxR1 content slightly and reduced the Trx1 content by a large amount | MDA content (Molm-13 and 4T1 cells): increased acutely and dosage-dependently | transcription of the Trx system [2]: decreased the transcription of the Trx system | IC50 (4T1; read-out: IC50 4T1 24 h): 800 nM | IC50 (4T1; read-out: IC50 4T1 48 h): 400 nM | IC50 (Molm-13; read-out: IC50 Molm 24 h): 200 nM | IC50 (Molm-13; read-out: IC50 Molm 48 h): 100 nM | IC50 (HeLa; read-out: IC50 HeLa 24 h): 400 nM | IC50 (HeLa; read-out: IC50 HeLa 48 h): 300 nM | apoptosis induction (Molm-13 cells): induced apoptosis in a dosage-dependent manner | body weight of the mice ([3]; 1 and 1.5 mg/kg i.p. once a week): no obvious impact on the body weight | blood cell counts (WBC, NEUT, LYMPH, MONO) ([3]; tumor-bearing mice versus normal mice): lowered the counts of blood cells and reversed abnormalities in the hematological system | H&E staining of heart, liver, spleen, lungs, kidneys ([3]; two MAZ2-administered groups): showed healthy organs | TrxR content of the liver and spleen ([3]; western blot): no changes | TrxR activity of the 4T1 cells (TrxR): sharply reduced activity | arsenic content of tumor and viscera [4]: gathered in the tumor instead of the viscera | change of IC50 value after TrxR was knocked down [5]: 5.5 fold | IC50 (NB4; read-out: IC50 NB4 24 h): 400 nM | IC50 (NB4; read-out: IC50 NB4 48 h): 300 nM
